From PMC5871718 (Cell, 2018)

Columns and labels:
NUDT1 = molecular target: T1, NUDT1 (Homo sapiens, UniProt P36639); experiment: 2D thermal proteome profiling (TMT mass spectrometry); format: cell-based; details: intact THP-1 cells, […] min, […] °C; stabilization
T1 construct: endogenous protein in THP-1 cells, identified by mass spectrometry

BRD3 = molecular target: T2, BRD3 (Homo sapiens, UniProt Q15059); experiment: as above; format: cell-based; details: intact THP-1 cells, […] min, […] °C; stabilization
T2 construct: endogenous full-length protein in THP-1 cells or lysate, identified by mass spectrometry
T2 sequence (Q15059 2-726): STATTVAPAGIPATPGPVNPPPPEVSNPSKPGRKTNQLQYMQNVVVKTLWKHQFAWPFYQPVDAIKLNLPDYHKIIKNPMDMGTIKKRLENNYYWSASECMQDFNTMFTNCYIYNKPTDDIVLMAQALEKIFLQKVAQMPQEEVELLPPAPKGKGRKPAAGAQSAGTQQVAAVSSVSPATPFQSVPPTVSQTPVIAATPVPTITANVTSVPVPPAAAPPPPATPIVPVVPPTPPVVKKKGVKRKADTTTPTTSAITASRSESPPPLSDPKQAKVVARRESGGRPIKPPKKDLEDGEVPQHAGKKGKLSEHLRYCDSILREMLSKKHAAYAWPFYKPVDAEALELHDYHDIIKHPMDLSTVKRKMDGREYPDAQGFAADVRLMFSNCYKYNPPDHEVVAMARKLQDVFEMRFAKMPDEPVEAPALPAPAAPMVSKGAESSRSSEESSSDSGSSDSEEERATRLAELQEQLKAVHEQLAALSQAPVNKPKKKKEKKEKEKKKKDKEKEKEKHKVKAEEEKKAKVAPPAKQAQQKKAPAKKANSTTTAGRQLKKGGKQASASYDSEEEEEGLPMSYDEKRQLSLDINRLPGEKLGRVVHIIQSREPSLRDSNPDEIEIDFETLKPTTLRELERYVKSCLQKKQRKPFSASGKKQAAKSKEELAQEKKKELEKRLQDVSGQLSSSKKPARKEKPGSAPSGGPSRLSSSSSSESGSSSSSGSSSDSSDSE

FYTTD1 [1] = molecular target: T3, FYTTD1 (Homo sapiens, UniProt Q96QD9); experiment: thermal shift of spiked recombinant protein, mass spectrometry read-out; format: binding; design: commercial recombinant protein (Abcam ab164533); details: […] JQ1, […] protein in background of recombinant protein domains, […] HEPES pH […] NaCl, […] glycerol, […] Tween20; destabilization
T3 sequence (Q96QD9 1-318): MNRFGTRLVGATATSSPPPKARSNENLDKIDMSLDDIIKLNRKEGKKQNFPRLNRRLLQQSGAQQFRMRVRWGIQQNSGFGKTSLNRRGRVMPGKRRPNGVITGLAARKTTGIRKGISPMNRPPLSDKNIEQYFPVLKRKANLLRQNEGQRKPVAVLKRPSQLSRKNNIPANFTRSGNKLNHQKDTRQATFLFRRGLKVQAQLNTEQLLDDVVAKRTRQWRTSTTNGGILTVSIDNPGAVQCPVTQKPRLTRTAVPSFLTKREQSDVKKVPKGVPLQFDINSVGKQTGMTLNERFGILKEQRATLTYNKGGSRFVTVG

SOAT1 = molecular target: T4, SOAT1 (Homo sapiens, UniProt P35610); experiment: 2D thermal proteome profiling (TMT mass spectrometry); format: cell-based; details: intact THP-1 cells, […] min, […] °C; stabilization; text value approximate
T4 construct: endogenous full-length protein in THP-1 cells, identified by mass spectrometry
T4 sequence (P35610 1-550): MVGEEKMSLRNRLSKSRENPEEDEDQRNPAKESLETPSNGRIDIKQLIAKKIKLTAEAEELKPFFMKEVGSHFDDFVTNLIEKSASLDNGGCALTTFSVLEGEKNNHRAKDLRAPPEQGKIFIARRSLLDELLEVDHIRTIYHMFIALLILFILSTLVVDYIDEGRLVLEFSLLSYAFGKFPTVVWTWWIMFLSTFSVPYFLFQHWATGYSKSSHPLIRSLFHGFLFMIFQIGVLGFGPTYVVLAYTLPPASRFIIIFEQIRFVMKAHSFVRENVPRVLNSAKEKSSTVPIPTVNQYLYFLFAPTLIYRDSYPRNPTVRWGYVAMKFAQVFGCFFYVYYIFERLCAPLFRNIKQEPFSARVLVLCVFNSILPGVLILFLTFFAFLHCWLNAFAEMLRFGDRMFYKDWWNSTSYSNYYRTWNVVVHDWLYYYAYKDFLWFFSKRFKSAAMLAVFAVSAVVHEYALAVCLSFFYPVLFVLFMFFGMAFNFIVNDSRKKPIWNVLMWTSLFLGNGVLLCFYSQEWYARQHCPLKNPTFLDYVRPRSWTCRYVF
Source text: 2D thermal proteome profiling (TMT mass spectrometry) on SOAT1 | stabilized SOAT1 and several members of the sterol biosynthesis pathway

FYTTD1 [2] = molecular target: T3, FYTTD1; experiment: as above; format: cell-based; design: endogenous protein in THP-1 cells, identified by mass spectrometry; details: intact THP-1 cells, […] min, […] °C; destabilization; text value approximate
Source text: 2D thermal proteome profiling (TMT mass spectrometry) on FYTTD1 | JQ1 further caused dose-dependent destabilization of FYTTD1

Row | SMILES | pEC50 (NUDT1) | pEC50 (BRD3) | thermal shift (FYTTD1 [1]) | EC50 (SOAT1) [µM] | EC50 (FYTTD1 [2]) [µM]
1 | COc1cc2c(cc1-c1c(C)noc1C)ncc1[nH]c(=O)n([C@H](C)c3ccccn3)c12 [I-BET151, 7-(3,5-dimethylisoxazol-4-yl)-8-methoxy-1-((R)-1-(pyridin-2-yl)ethyl)-1H-imidazo[4,5-c]quinolin-2(3H)-one] | 5.3 | 5.9 | – | – | –
2 | Cc1sc2c(c1C)C(c1ccc(Cl)cc1)=N[C@@H](CC(=O)OC(C)(C)C)c1nnc(C)n1-2 [JQ1] | – | – | Thermal shift assays with recombinantly expressed FYTTD1 confirmed destabilization by JQ1 binding | ~1 | ~1
